Data as given in patent publication US8067424B2, “Selective inhibitors for cyclin-dependent kinases” (Emory University, priority 2007, dated 2011).
Read-outs that look alike come from different tables or passages of the source.

How the values were obtained:
Type in all cases: biochemical
[1] = molecular target: PKBα (Homo sapiens, UniProt P31749, S473D); assay: Kinase screen: APH-PKBa-S473D assay
Experimental: (§1) Generally, the same procedure was used for all assays. Since the total assay volume was 25.5 microliters, 0.5 microliters of inhibitors at 51× assay concentration were added to the plates before any other addition.
(§2) The basic procedure was to add 0.5 microliters inhibitor/control in DMSO to plate. Fifteen microliters of enzyme/substrate/buffer mix were added and incubated for 5 min. Ten microliters MgATP at the relevant concentration were added and incubated for 30 min. The assay was stopped by adding 5 microliters of 3% orthophosphoric acid. The assay was transferred to a p81 filter plate and read in a scintillation counter of 30 sec/well. Note that this assay procedure was not followed for MKK1, which instead involved a two-step assay, and PKC alpha, which required the addition of lipid vesicles.
APH-PKBa-S473D assay: APH-PKBa-S473D (5-20 mU diluted in 50 mM Tris pH 7.5, 0.1 mM EGTA, 0.1% b-mercaptoethanol, 1 mg/ml BSA) was assayed against a modified Crosstide peptide […] (SEQ ID NO: 4) in a final volume of 25.5 μl containing 50 mM Tris pH 7.5, 0.05% b-mercaptoethanol, 30 μM substrate peptide, 10 mM magnesium acetate and 0.005 mM [33P-g-ATP] (50-1000 cpm/pmole) and incubated for 30 min at room temperature. Assays were stopped by addition of 5 μl of 0.5 M (3%) orthophosphoric acid and then harvested onto P81 Unifilter plates with a wash buffer of 50 mM orthophosphoric acid.

[2] = molecular target: T1, PKD1 (Homo sapiens, UniProt Q15139); assay: Kinase screen: PKD1 assay
T1 sequence (Q15139 1-912): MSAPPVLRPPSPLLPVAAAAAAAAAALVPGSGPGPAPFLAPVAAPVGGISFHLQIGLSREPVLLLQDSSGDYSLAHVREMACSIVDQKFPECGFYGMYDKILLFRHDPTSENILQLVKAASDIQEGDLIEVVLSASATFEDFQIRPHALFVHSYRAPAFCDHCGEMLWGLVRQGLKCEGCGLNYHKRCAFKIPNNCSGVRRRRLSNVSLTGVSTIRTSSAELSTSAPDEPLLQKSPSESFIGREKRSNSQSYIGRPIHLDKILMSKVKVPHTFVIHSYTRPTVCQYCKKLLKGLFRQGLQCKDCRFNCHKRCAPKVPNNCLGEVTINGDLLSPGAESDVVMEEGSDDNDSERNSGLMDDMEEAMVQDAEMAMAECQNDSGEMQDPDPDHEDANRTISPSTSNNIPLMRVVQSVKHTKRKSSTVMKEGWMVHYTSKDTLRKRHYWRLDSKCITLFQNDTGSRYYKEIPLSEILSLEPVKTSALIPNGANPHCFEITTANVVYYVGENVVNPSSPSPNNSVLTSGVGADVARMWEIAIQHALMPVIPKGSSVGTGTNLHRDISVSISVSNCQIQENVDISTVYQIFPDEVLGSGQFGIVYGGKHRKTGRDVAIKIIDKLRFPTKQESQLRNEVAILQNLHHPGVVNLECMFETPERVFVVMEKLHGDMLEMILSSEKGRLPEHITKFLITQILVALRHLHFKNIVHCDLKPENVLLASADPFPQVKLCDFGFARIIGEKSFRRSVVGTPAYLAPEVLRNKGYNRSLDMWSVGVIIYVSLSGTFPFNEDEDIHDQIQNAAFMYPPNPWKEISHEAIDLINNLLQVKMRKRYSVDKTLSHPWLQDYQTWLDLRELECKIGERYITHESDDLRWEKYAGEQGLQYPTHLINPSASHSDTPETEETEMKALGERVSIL
Experimental: as §1, §2
(§3) PKD1 assay: PKD1 (5-20 mU diluted in 50 mM Tris pH 7.5, 0.1 mM EGTA, 0.1% b-mercaptoethanol, 1 mg/ml BSA) was assayed substrate peptide ([…]) (SEQ ID NO: 3) in a final volume of 25.5 μl containing 50 mM Tris pH 7.5, 0.05% b-mercaptoethanol, 30 μM substrate peptide, 10 mM magnesium acetate and 0.05 mM [33P-g-ATP] (50-1000 cpm/pmole) and incubated for 30 min at room temperature. Assays were stopped by addition of 5 μl of 0.5 M (3%) orthophosphoric acid and then harvested onto P81 Unifilter plates with a wash buffer of 50 mM orthophosphoric acid.

[3] = molecular target: DYRK1A (Homo sapiens, UniProt Q13627); assay: Kinase screen: DYRK 1A assay
Experimental: as §1, §2
(50-1000 cpm/pmole) and incubated for 30 min at room temperature. Assays were stopped by addition of 5 μl of 0.5 M (3%) orthophosphoric acid and then harvested onto P81 Unifilter plates with a wash buffer of 50 mM orthophosphoric acid.

[4] = molecular target: HIPK2 (Homo sapiens, UniProt Q9H2X6); assay: Kinase screen: HIPK2 assay
Sequence of HIPK2 (Q9H2X6 whole entry, species assumed): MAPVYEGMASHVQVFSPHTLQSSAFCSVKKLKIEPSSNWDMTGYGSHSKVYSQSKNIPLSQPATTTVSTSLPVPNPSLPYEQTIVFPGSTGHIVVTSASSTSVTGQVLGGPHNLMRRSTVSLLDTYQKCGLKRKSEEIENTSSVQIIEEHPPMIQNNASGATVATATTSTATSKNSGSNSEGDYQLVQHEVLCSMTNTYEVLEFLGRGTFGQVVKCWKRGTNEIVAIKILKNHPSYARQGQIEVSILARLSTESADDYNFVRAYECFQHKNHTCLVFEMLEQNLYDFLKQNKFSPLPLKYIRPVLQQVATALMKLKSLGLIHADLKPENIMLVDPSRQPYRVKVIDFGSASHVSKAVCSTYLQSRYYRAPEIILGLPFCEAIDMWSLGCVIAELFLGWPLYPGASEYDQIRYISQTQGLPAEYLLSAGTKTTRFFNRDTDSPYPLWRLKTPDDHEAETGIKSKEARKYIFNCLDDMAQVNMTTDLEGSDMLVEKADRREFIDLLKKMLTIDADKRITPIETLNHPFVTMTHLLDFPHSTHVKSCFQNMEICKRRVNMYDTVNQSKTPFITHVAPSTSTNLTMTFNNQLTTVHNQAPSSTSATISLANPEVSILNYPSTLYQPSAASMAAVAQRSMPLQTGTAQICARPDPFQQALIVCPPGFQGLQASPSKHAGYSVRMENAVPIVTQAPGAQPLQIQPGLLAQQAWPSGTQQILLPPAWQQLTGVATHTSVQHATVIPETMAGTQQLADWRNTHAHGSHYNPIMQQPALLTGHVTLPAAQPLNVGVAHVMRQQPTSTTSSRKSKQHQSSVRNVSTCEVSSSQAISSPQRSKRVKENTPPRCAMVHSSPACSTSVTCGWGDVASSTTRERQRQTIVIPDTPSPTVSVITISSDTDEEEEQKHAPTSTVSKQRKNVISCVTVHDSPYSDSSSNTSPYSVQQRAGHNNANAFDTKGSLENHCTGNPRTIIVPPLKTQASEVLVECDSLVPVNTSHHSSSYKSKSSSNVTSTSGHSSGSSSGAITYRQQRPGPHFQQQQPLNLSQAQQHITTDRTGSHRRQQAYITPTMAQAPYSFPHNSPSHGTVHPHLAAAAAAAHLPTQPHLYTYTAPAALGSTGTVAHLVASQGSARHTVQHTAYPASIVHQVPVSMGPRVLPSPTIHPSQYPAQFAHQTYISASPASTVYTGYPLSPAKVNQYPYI
Experimental: as §1, §2
HIPK2 assay: 5-20 mU of HIPK2 (diluted in 50 mM Tris (pH 7.5), 0.1 mM EGTA, 1 mg/ml BSA, 0.1%, b-Mercaptoethanol) was assayed against MBP in a final volume of 25.5 μl containing 50 mM Tris (pH 7.5), 0.1 mM EGTA, 0.1%, b-Mercaptoethanol, 0.33 mg/ml MBP, 10 mM magnesium acetate and 0.005 mM [33P-g-ATP] (500-1000 cpm/pmole) and incubated for 30 mins at room temperature. Assays were stopped by addition of 5 μl of 0.5M (3%) orthophosphoric acid. Assays were harvested onto P81 Unifilter plates using a wash buffer of 50 mM orthophosphoric acid.

[5] = system: VEG-FR; assay: Kinase screen: VEG-FR assay; settings: 10 micromolar compound
Experimental: as §1, §2
as §3, with “VEG-FR” for “PKD1”, “EGTA,” for “EGTA, 0.1% b-mercaptoethanol,”, “assayed against a” for “assayed”, “35)” for “3)”, “300” for “0.05% b-mercaptoethanol, 30”, “0.02” for “0.05”

[6] = 0.5 h, 10 micromolar compound, read-out: mean activity remaining (as a percentage of the original activity), PKBa
[7] = 10 micromolar compound, read-out: mean activity remaining (as a percentage of the original activity), PKD1
[8] = 10 micromolar compound, read-out: mean activity remaining (as a percentage of the original activity), DYRK 1A
[9] = 10 micromolar compound, read-out: mean activity remaining (as a percentage of the original activity), HIPK2

Sequence of PKBα (P31749 118-480 S473D limits assumed, species assumed): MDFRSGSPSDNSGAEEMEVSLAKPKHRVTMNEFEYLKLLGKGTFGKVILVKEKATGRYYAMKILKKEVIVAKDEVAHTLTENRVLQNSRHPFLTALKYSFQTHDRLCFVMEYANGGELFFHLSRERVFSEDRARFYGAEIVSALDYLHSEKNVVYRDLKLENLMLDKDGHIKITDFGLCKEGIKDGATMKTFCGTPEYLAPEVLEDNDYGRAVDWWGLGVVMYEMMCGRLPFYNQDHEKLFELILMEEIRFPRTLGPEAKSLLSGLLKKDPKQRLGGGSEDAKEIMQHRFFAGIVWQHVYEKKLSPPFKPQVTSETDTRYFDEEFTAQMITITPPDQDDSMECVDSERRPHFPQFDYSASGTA

Compound	remaining activity at 10 µM ([1]; PKBα, 10 μM, read-out: Mean Remaining Enzyme Activity (%)) [%]	remaining activity at 10 µM ([2]; PKD1, 10 μM, read-out: Mean Remaining Enzyme Activity (%)) [%]	remaining activity at 10 µM ([3]; DYRK1A, 10 μM, read-out: Mean Remaining Enzyme Activity (%)) [%]	IC50 ([3]; kinase screen) [nM]	remaining activity at 10 µM ([4]; HIPK2, 10 μM, read-out: Mean Remaining Enzyme Activity (%)) [%]	remaining activity at 10 µM [1, 6] [%]	remaining activity at 10 µM [2, 7] [%]	remaining activity at 10 µM [3, 8] [%]	remaining activity at 10 µM [4, 9] [%]	mean activity remaining (as a percentage of the original activity), VEG-FR [5] [%]	mean activity remaining (as a percentage of the original activity), PKBa ([1]; 10 micromolar compound) [%]	mean activity remaining (as a percentage of the original activity), PKD1 ([2]; 10 micromolar compound) [%]	mean activity remaining (as a percentage of the original activity), DYRK 1A ([3]; 10 micromolar compound) [%]	mean activity remaining (as a percentage of the original activity), HIPK2 ([4]; 10 micromolar compound) [%]
CC(C)c1cnn2c(NCc3ccccc3)cc(NCCCCCCCN)nc12 [BS-181]	82	53	17	2300	88									
C=C[C@H](CO)Nc1cc(NCc2ccccc2)n2ncc(C(C)C)c2n1 [ICEC0065]						116	88	30	70	101				
CC[C@H](CO)Nc1cc(NCc2ccccc2)n2ncc(C(C)C)c2n1 [ICEC0067]						109	87	27	70	99				
CC(C)c1cnn2c(NCc3ccccc3)cc(N[C@@H](CO)[C@H](O)CO)nc12 [ICEC0318, (3S)-3-(7-(Benzylamino)-3-isopropylpyrazolo[1,5-a]pyrimidin-5-ylamino)butane-1,2,4-triol]						103	97	15	73	92				
CC(C)c1cnn2c(NCc3ccccc3F)cc(NCCCCCN)nc12 [ICEC-0232]										105	75	32	11	49
